Common to all, as to experiment: fluorescent cephalosporin
Common to all, as to assay type: biochemical

Experiment [1] deals with VIM-2 (Pseudomonas aeruginosa, UniProt Q9K2N0). As to conditions: read-out: VIM-2 IC50; […] min pre-incubation, FC5 substrate, HEPES.
Experiment [2] deals with IMP-28 (Klebsiella oxytoca, UniProt G4WB26). Particulars: read-out: IMP-28 IC50; […] min pre-incubation, FC5 substrate, HEPES.
The target of experiment [3] is NDM-1 (Klebsiella pneumoniae, UniProt C7C422).

Drawing on article PMC7986777 (Chemistry (Weinheim an Der Bergstrasse, Germany), 2021), this text covers IC50 for eight compounds.

SMILES strings stand for the structures.

NDM-1, sequence (C7C422 29-270, looked up): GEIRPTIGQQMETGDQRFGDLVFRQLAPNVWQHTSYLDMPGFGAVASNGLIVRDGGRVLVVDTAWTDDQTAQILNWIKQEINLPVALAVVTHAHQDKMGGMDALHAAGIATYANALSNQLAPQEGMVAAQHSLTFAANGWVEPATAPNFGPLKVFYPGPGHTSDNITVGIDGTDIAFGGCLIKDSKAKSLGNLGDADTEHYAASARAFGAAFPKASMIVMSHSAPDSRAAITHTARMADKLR
IMP-28, sequence (G4WB26 20-246): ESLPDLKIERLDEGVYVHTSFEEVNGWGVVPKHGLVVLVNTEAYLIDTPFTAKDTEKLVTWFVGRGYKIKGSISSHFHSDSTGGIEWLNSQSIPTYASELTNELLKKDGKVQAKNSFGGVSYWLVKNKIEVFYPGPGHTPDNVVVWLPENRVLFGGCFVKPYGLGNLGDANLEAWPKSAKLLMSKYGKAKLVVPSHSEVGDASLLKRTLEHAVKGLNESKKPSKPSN

A word on the IC50: it is the concentration that inhibits the measured activity by half. For `O=C(Cc1ccccc1)N[C@@H]1C(=O)N2C(C(=O)O)=C(CSc3cccc4cccnc34)CS[C@H]12` [compound 6], the half-maximal inhibitory concentration (IC50) in experiment [1] came out at 3.64 ± 0.27 µM; in experiment [2] it was 10.3 ± 0.22 µM.
With `O=C(Cc1ccccc1)N[C@@H]1C(=O)N2C(C(=O)O)=C(CSc3cccc4cccnc34)CS(=O)(=O)[C@H]12` [compound 8], the IC50 in experiment [3] worked out at 8.47 ± 1.02 µM; in experiment [1] it was 4.17 ± 0.65 µM; in experiment [2], 46.2 ± 3.13 µM.
As to `O=C(Cc1ccccc1)N[C@@H]1C(=O)N2C(C(=O)O)=C(COC(=O)c3cccc(C(=O)O)n3)CS(=O)(=O)[C@H]12` [compound 15], the IC50 in experiment [3] came out at 18.8 ± 1.22 µM; in experiment [1], 10.8 ± 0.6 µM; in experiment [2], 61.9 ± 1.82 µM.
For `O=C(Cc1ccccc1)N[C@@H]1C(=O)N2C(C(=O)O)=C(CSc3cccc4cccnc34)C[S+]([O-])[C@H]12` (stereo partly shown) [compound 7] the same measures were 2.18 ± 0.14 µM, 6.35 ± 0.56 µM and 71.9 ± 3.05 µM.
For `O=C(Cc1ccccc1)N[C@@H]1C(=O)N2C(C(=O)O)=C(COC(=O)c3cccc(C(=O)O)n3)C[S+]([O-])[C@H]12` (stereo partly shown) [compound 14] the same measures were 0.299 ± 0.005 µM, 0.756 ± 0.056 µM and 46.7 ± 2.76 µM.
For `O=C(Cc1ccccc1)N[C@@H]1C(=O)N2C(C(=O)O)=C(COC(=O)c3cccc(C(=O)O)n3)CS[C@H]12` [compound 13] the same measures were 2.13 ± 0.07 µM, 1.87 ± 0.1 µM and 7.39 ± 0.1 µM.
Turning to `O=C(O)c1cccc(C(=O)O)n1` [DPA], the half-maximal inhibitory concentration (IC50) in experiment [1] turned out to be 4.34 ± 0.67 µM; in experiment [2] it was 9.65 ± 0.62 µM.
As for `Sc1cccc2cccnc12` [8-TQ], the IC50 in experiment [3] was determined as 2.99 ± 0.58 µM; in experiment [1] it was 4.2 ± 1 µM; in experiment [2], 4.2 ± 0.11 µM.
